# PMC10285950 (ACS Omega, 2023)
# Several values for one entry are separate records, joined by “and”; a condition that tells them apart may be missing. Equal entries are not always repeated.
# Tests used:
# human 5HT1A receptor = target: T1, human 5HT1A receptor (Homo sapiens, UniProt P08908); test: [3H]8-OH-DPAT binding at the 5-HT1A receptor; settings: HEK-h5HT1A membranes
# T1 sequence (P08908 1-422): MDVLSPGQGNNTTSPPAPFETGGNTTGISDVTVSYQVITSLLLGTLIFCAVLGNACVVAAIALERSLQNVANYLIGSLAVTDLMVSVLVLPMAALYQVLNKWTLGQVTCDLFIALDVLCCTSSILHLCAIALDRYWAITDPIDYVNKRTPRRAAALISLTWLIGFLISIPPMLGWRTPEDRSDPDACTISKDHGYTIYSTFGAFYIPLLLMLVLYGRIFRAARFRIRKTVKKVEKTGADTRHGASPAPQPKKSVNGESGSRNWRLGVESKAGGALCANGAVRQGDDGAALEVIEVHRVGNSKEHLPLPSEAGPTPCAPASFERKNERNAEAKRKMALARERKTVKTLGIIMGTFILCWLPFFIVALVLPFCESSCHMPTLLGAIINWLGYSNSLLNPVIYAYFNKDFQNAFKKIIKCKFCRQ
# h5HT7A receptor = h5HT7A receptor (Homo sapiens, UniProt P34969); test: [3H]5-HT binding at 5HT7A receptors; settings: HEK cells transiently transfected with h5HT7A
# Chain of h5HT7A receptor (P34969 1-445 isoform P34969-2): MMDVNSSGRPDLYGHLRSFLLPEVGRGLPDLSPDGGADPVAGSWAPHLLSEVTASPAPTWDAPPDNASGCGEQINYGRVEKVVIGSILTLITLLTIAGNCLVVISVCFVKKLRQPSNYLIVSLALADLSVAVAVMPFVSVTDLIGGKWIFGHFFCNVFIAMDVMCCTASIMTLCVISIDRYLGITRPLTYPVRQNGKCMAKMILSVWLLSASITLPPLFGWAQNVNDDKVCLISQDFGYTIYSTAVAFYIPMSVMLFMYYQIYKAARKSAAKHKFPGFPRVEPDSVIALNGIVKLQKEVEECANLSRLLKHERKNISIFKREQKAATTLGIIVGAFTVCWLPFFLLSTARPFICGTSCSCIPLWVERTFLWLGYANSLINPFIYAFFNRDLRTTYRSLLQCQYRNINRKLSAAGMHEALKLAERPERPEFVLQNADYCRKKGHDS
# [1] = target: T2, 5-HT1AR (HEK-h5HT1A membranes) (Homo sapiens, UniProt P08908); test: HEK-5HT1A [35S]GTPγS binding functional assay; assay type: biochemical; settings: for 5-HT1AR [35S]GTPγS assay % max ± SEM: maximal effect normalized to maximal effect of serotonin; for functional character at 5-HT1AR ([35S]GTPγS assay): result in words
# T2 sequence (P08908 1-422): T1 sequence (P08908 1-422)
# 5-HT7AR [2] = target: T3, 5-HT7AR (Homo sapiens, UniProt P34969); test: HEK-5HT7A/cAMP; assay type: cell-based
# T3 sequence (P34969 1-445 isoform P34969-2): as above
# 5-HT7AR [3] = target: T3, 5-HT7AR; test: HEK-5HT7A/cAMP; assay type: cell-based; remark: listed apart in the source
SMILES,5-HT1AR [3H]8-OH-DPAT binding hill slope ± SEM (human 5HT1A receptor),5-HT7AR [3H]5-HT binding hill slope ± SEM (h5HT7A receptor),5-HT1AR [35S]GTPγS assay % max ± SEM [1],functional character at 5-HT1AR ([35S]GTPγS assay) [1],agonist activity at 5-HT7AR (5-HT7AR [2]; result in words),5-HT7AR adenylate cyclase % max inhib. ± SEM (5-HT7AR [3]; maximal inhibition of cAMP formation defined with 10 μM lurasidone),5-HT1AR [35S]GTPγS assay % max ± SEM ([1]; listed as serotonin (5-HT)),"5-HT7AR adenylate cyclase % max ± SEM (5-HT7AR [2]; agonist effect, normalized to maximal serotonin effect)",inhibition (5-HT7AR [3]; read-out: 5-HT7AR adenylate cyclase % max inhib. ± SEM)
"CC1(CCCN2CCN(c3ccccn3)CC2)Cc2cc(Cl)ccc2C1=O (racemic) [SYA0340, 5-chloro-2-methyl-2-(3-(4-(pyridin-2-yl)piperazin-1-yl)propyl)-2,3-dihydro-1H-inden-1-one]",–0.66 ± 0.09,–0.59 ± 0.03,101.5% and 101.5 ± 2.8%,full agonist,do not show any agonist activity,94.7 ± 4.1%,,,
"NCCc1c[nH]c2ccc(O)cc12 [5-HT, serotonin]",–0.96 ± 0.06,–1.07 ± 0.09,101.2 ± 1.1%,full agonist,,,101.2%,95.8% and 95.8 ± 1.6%,
O=C1[C@@H]2[C@H]3CC[C@H](C3)[C@@H]2C(=O)N1C[C@@H]1CCCC[C@H]1CN1CCN(c2nsc3ccccc23)CC1 [lurasidone],,–0.76 ± 0.11,,,,,,,98 ± 2%
